Calls of active or inactive are those of the source. The rule behind the calls is not given here.
How the values were obtained:
[1] = target: T1, Prostaglandin G/H synthase 1 (Ovis aries, UniProt P05979); assay: Inhibition of ovine COX-1 using arachidonic acid as substrate assessed as PGE2 production preincubated for 10 mins followed by substrate addition incubated for 2 mins by ELISA
T1 sequence (P05979 whole entry): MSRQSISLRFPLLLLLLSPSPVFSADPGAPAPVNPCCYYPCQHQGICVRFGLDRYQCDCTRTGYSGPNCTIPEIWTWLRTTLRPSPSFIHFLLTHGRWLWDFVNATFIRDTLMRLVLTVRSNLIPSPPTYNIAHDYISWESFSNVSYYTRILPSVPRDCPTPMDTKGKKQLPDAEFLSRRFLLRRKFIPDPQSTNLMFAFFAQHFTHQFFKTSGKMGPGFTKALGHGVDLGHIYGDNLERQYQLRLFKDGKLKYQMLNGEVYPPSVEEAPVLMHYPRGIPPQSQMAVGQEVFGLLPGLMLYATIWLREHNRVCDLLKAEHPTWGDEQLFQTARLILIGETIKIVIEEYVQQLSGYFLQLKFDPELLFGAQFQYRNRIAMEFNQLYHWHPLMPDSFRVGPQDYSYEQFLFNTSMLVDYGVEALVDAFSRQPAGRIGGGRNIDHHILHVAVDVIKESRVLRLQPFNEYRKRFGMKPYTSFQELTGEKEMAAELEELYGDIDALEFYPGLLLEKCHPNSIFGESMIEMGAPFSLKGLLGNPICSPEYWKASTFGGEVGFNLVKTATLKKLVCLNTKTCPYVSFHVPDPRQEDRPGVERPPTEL

[2] = target: T2, Prostaglandin G/H synthase 2 (Homo sapiens, UniProt P35354); assay: Inhibition of human recombinant COX-2 using arachidonic acid as substrate assessed as PGE2 production preincubated for 10 mins followed by substrate addition incubated for 2 mins by ELISA
T2 sequence (P35354 whole entry): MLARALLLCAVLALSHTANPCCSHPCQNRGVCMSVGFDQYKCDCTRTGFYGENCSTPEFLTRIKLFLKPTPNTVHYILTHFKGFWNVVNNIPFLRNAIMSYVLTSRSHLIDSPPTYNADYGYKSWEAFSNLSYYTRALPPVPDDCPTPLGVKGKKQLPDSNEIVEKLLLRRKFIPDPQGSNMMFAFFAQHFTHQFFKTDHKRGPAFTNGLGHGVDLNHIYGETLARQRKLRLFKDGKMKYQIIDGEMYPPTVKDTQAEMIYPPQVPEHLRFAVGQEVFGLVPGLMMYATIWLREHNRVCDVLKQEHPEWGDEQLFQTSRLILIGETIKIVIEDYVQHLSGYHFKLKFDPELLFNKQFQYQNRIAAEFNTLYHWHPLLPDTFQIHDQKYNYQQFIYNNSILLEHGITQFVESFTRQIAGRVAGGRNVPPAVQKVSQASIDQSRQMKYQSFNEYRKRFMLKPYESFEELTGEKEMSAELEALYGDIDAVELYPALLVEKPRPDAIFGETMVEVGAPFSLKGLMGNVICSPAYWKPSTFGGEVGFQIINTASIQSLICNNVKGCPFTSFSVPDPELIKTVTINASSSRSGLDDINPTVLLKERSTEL

[3] = Antioxidant activity assessed as DPPH free radical scavenging activity at 200 uM after 30 mins by spectrophotometric analysis; format: physicochemical; settings: 0.5 h
[4] = Selectivity index ratio of IC50 for ovine COX-1 to IC50 for human recombinant COX-2
[5] = Antioxidant activity assessed as DPPH free radical scavenging activity at 0.06 to 200 uM after 30 mins by spectrophotometric analysis; format: physicochemical; settings: 0.5 h
Mus musculus [6] = assay: Antiinflammatory activity in BALB/c mouse paw edema model assessed as decrease in myeloperoxidase activity in paw exudates at 20 mg/kg, po administered 30 mins prior to carrageenan challenge measured after 4 hrs by microplate reader analysis relative to control; format: functional; set-up: scale not given: the % may be the effect or the level left
Mus musculus [7] = assay: Antiinflammatory activity in carrageenan-induced BALB/c mouse peritonitis model assessed as decrease in number of leukocytes in peritoneal exudates administered via oral gavage 30 mins prior to carrageenan challenge measured after 4 hrs; format: functional, organism-based
Mus musculus [8] = assay: Antiinflammatory activity in carrageenan-induced BALB/c mouse peritonitis model assessed as decrease in nitric oxide level in peritoneal exudates at 10 to 20 mg/kg administered via oral gavage 30 mins prior to carrageenan challenge measured after 4 hrs by Griess method; format: functional, organism-based
Mus musculus [9] = assay: Antiinflammatory activity in carrageenan-induced BALB/c mouse paw edema model assessed as decrease in paw volume at 10 mg/kg, po administered 30 mins prior to carrageenan challenge measured after 6 hrs by plethysmometric analysis relative to control; format: functional; set-up: scale not given: the % may be the effect or the level left
Mus musculus [10] = assay: Antiinflammatory activity in carrageenan-induced BALB/c mouse paw edema model assessed as decrease in paw volume administered orally 30 mins prior to carrageenan challenge measured after 1 to 6 hrs by plethysmometric analysis; format: functional, organism-based
Mus musculus [11] = assay: Antiinflammatory activity in carrageenan-induced BALB/c mouse paw edema model assessed as decrease in paw volume at 20 mg/kg, po administered 30 mins prior to carrageenan challenge measured after 6 hrs by plethysmometric analysis relative to control; format: functional; set-up: scale not given: the % may be the effect or the level left
Mus musculus [12] = assay: Antiinflammatory activity in BALB/c mouse paw edema model assessed as decrease in myeloperoxidase activity in paw exudates at 10 mg/kg, po administered 30 mins prior to carrageenan challenge measured after 4 hrs by microplate reader analysis relative to control; format: functional; set-up: scale not given: the % may be the effect or the level left
HepG2 [13] = assay: Antioxidant activity in human HepG2 cells assessed as reduction of H2O2-induced ROS level at 10 uM pretreated for 20 hrs followed by H2O2 stimulation for 30 mins by DCF-DA-based fluorescence analysis relative to control; format: functional; set-up: scale not given: the % may be the effect or the level left
HepG2 [14] = assay: Cytotoxicity against human HepG2 cells at 2.5 to 10 uM by MTT assay; format: cell-based; settings: hepg2, 10 µM
Mus musculus [15] = assay: Antiinflammatory activity in carrageenan-induced BALB/c mouse peritonitis model assessed as decrease in number of leukocytes in peritoneal exudates at 10 to 20 mg/kg administered via oral gavage 30 mins prior to carrageenan challenge measured after 4 hrs; format: functional, organism-based

## O=C(O)c1cc(/C=C/c2ccc(O)cc2)ccc1O
[1]
  IC50: 421 µM
[2]
  IC50: > 500 µM
[3]
  Activity: Active

## O=C(O)c1cc(/C=C/c2cc(O)cc(O)c2)ccc1O
[1]
  IC50: 3.2 µM
[2]
  IC50: 10.3 µM
[4]
  Ratio IC50: 0.31
[5]
  Activity: Active

## COC(=O)c1cc(/C=C/c2cc(O)cc(O)c2)ccc1O
Mus musculus [6]
  Activity: 60%
[1]
  IC50: 4.1 µM
[2]
  IC50: 1 µM
[4]
  Ratio IC50: 4.1
Mus musculus [7]
  Activity: Dose-dependent effect
Mus musculus [8]
  Activity: inactive
Mus musculus [9]
  Activity: 59%
Mus musculus [10]
  Activity: Dose-dependent effect
Mus musculus [11]
  Activity: 74%
Mus musculus [12]
  Activity: 60%
HepG2 [13]
  Activity: 33%
HepG2 [14]
  Activity: Non-toxic
[5]
  Activity: Active

## Oc1ccc(/C=C/c2cc(O)cc(O)c2)cc1 [RESVERATROL]
Mus musculus [6]
  Activity: 53%
Mus musculus [15]
  Activity: Active
Mus musculus [8]
  Activity: inactive
Mus musculus [9]
  Activity: 34%
Mus musculus [10]
  Activity: Dose-dependent effect
Mus musculus [11]
  Activity: 52%
HepG2 [13]
  Activity: 25%
HepG2 [14]
  Activity: Non-toxic
[5]
  Activity: Active

## COc1ccc(/C=C/c2cc(OC)cc(OC)c2)cc1 [TRISMETHOXYRESVERATROL]
Mus musculus [6]
  Activity: inactive
[1]
  IC50: 1.23 µM
[2]
  IC50: 1.67 µM
[4]
  Ratio IC50: 0.74
Mus musculus [7]
  Activity: Dose-dependent effect
Mus musculus [8]
  Activity: inactive
Mus musculus [9]
  Activity: 19%
Mus musculus [10]
  Activity: Dose-dependent effect
Mus musculus [11]
  Activity: 34%
HepG2 [13]
  Activity: 42%
HepG2 [14]
  Activity: Non-toxic

From ChEMBL document CHEMBL3763065, “Anti-inflammatory and antioxidant properties of a novel resveratrol-salicylate hybrid analog” (Bioorg Med Chem Lett, 2016)
